Experimental data taken from patent publication US20050215626A1, “Substituted benzofuran oximes” (WYETH, priority 2003, published 2005).

Molecular target: human PAI-1 (Homo sapiens, UniProt P05121)
Experiment: Assay for determining the IC50 of inhibition of PAI-1 (active PAI-1 bound to tPA-coated plate, antibody detection)
Format: biochemical
Conditions: inhibition of Plasminogen Activator Inhibitor-1; test compounds 1-50 μM incubated with human PAI-1 (50 ng/ml), pH 7.5, human tPA-coated plate
Description: This assay is based upon the non-SDS dissociable interaction between tPA and active PAI-1. Assay plates are initially coated with human tPA (10 μg/ml). Test compounds are dissolved in DMSO at 10 mM, then diluted with physiologic buffer (pH 7.5) to a final concentration of 1-50 μM. The test compounds are incubated with human PAI-1 (50 ng/ml) for 15 minutes at room temperature. The tPA-coated plate is washed with a solution of 0.05% Tween 20 and 0.1% BSA, then the plate is blocked with a solution of 3% BSA. An aliquot of the test compound/PAI-1 solution is then added to the tPA-coated plate, incubated at room temperature for 1 hour, and washed. Active PAI-1 bound to the plate is assessed by adding an aliquot of a 1:1000 dilution of the 33B8 monoclonal antibody against human PAI-1, and incubating the plate at room temperature for 1 hour (Molecular Innovations, Royal Oak, Mich.). The plate is again washed, and a solution of goat anti-mouse IgG-alkaline phosphatase conjugate is added at a 1:50,000 dilution in goat serum. The plate is incubated 30 minutes at room temperature, washed, and a solution of alkaline phosphatase substrate is added. The plate is incubated 45 minutes at room temperature, and color development is determined at OD405 nm. The quantitation of active PAI-1 bound to tPA at varying concentrations of the test compound is used to determine the IC50. Results are analyzed using a logarithmic best-fit equation. The assay sensitivity is 5 ng/mi of human PAI-1 as determined from a standard curve ranging from 0-100 ng/ml.

Chain of human PAI-1 (P05121 24-402): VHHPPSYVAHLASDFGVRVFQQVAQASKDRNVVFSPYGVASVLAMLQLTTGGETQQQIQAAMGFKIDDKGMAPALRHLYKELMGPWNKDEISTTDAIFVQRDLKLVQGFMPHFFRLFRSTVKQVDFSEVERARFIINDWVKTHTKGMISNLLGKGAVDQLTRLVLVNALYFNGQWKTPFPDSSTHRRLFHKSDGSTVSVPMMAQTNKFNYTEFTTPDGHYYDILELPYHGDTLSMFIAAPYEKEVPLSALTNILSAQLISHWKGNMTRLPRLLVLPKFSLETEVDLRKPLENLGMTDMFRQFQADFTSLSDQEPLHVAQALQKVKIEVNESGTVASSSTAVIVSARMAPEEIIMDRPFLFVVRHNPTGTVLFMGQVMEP

Compound	IC50 [µM]
CCCCc1oc2ccccc2c1/C=N/OCCCOc1ccc(C(=O)O)c(NC(=O)c2ccc(C(C)(C)C)cc2)c1 [Compound 1, 4-[3-({[(1E)-(2-butyl-1-benzofuran-3-yl)methylidene]amino}oxy)propoxy]-2-[(4-tert-butylbenzoyl)amino]-benzoic acid]	44.4
CCCCc1oc2ccccc2c1/C=N/OCCOc1ccc(C(=O)O)cc1Cl [Compound 4, 4-[2-({[(1E)-(2-butyl-1-benzofuran-3-yl)methylidene]amino]oxy)ethoxy]-3-chlorobenzoic acid]	24.8
CCCCc1oc2ccccc2c1/C=N/OCCCOc1ccc(C(=O)O)cc1-c1ccc(C(F)(F)F)cc1 [Compound 6, 6-[3-({[(1E)-(2-butyl-1-benzofuran-3-yl)methylidene]amino}oxy)propoxy]-4′-(trifluoromethyl)-1,1′-biphenyl-3-carboxylic acid]	17.5

Next, values leading:

IC50 [µM]	Compound
31.4	CCCCc1oc2ccccc2c1/C=N/OCCCOc1ccc(CC(=O)O)cc1 [Compound 2, {4-[3-({[(1E)-(2-butyl-1-benzofuran-3-yl)methylidene]amino}oxy)propoxy]phenyl}acetic acid]
19.2	CCCCc1oc2ccccc2c1/C=N/OCCCOc1ccc(C(=O)O)c(O)c1 [Compound 3, 4-[3({[(1E)-(2-butyl-1-benzofuran-3-yl)methylidene]amino}oxy)propoxy]-2-hydroxybenzoic acid]
29.2	CCCCc1oc2ccccc2c1/C=N/OCc1ccc(C(=O)O)c(Br)c1 [Compound 5, 2-bromo-4-[({[(1E)-(2-butyl-1-benzofuran-3-yl)methylidene]amino}oxy)methyl]benzoic acid]
